From patent US20230265481A1, “METHOD FOR MEASURING THE PROTEASE ACTIVITY OF C3 AND C5 CONVERTASE OF THE ALTERNATIVE COMPLEMENT PATHWAY” (Alexion Pharmaceuticals, Inc., priority 2015, published 2023)

Assays:
Factor D = biological target: T1, Factor D (Homo sapiens, UniProt P00746); experiment: BLI biosensor assay of Factor D cleavage of Factor B, anti-Bb antibody binding; assay type: biochemical
T1 construct: purchased Comptech (Tyler TX)

C5 convertase = C5 convertase activity on bio-C3b streptavidin-coated spheres, C5a measured with MSD (ECL) assay; assay type: biochemical; details: for ECL signal (amount of C5a produced by C5 convertase): C5 100 nM, 60 minutes
Description: The bio-C3b binding to streptavidin was performed in a 2.0 ml micro-centrifuge tube. Two hundred and forty […] of Spherotech beads, […] diameter, streptavidin coated spheres were first washed by centrifugation with 300 μL of 10 mM Tris, pH 8, and then resuspended in 200 μL of 10 mM Tris, pH 8. The spheres were incubated with bio-C3b or C3b at a concentration of 320 nM. Spheres were suspended by gentle shaking at 1350 RPM for 20 minutes at room temperature, and collected by centrifugation at 16 RCF for 10 minutes. The residual supernatant was removed and the beads are then washed to remove residual unbound bio-C3b.
C5 convertase was formed on the spheres by incubating the bio-C3b spheres with a Convertase Solution that included components of the AP, a divalent cation and buffer. The Convertase Solution consisted of Factor D, (10 nM), Factor B (400 nM), and NiCl2 (200 μM) in 10 mM Tris, pH 8.0. The spheres were suspended by gentle shaking at 1350 RPM for 20 minutes at 37° C. The spheres were centrifuged at 16×g (RCF) for 10 minutes, the supernatant is removed, and the spheres are resuspended in 1.2 ml of 10 mM Tris pH 8, 1 mM EDTA to a final concentration of 200 μg/ml.
Formation of C5a was accomplished by incubating C5, and the spheres in a Reaction Solution that included a divalent cation. The Reaction Solution was prepared by transferring to a microplate well: (i) […] of spheres with C5 convertase in 10 μl of the Convertase Solution; (ii) […] of a 500 μM NiCl2 solution; and (iii) […] of a 250 nM solution of C5 (5 pmoles). […]
Following the incubation, the reaction was stopped by adding 10 μL of a 500 mM EDTA in 10 mM Tris, pH=8.0. (Total Volume=60 μl)
The amount of C5a in the Reaction Solution was measured with an MSD assay, similar to an ELISA. The neo-epitope anti-C5a antibody, BNJ383, captured soluble C5a, binding it to a well in a microplate. BNJN383 has a high affinity for C5a but a low affinity for C5. The detection reagent was a mouse anti-C5a antibody that binds the C5a captured on the plate, and a SULFO-TAG™ modified anti-mouse secondary antibody that bound the mouse antibody, and generated an ECL signal.
To wells of a high binding 96-well microplate (MSD Catalog No. L15XB-3) was added BNJ383 (0.3 pmoles,)[…]/mL in 25 μL of a carbonate-bicarbonate buffer at pH 9.4. The microplate was sealed and incubated at 37° C. for 60 minutes. […]
The wells were sealed with a foil seal and incubated in the dark for 30 minutes. […] One hundred and fifty μL of 2X MSD Read Buffer containing tripropylamine as an electron carrier was added to the wells using a negative pipetting technique. The microplate was read on an MSD imager to measure the ECL signal generated by the SULFO-TAG™ affixed to the goat secondary antibody. […]

T1 sequence (P00746 26-253): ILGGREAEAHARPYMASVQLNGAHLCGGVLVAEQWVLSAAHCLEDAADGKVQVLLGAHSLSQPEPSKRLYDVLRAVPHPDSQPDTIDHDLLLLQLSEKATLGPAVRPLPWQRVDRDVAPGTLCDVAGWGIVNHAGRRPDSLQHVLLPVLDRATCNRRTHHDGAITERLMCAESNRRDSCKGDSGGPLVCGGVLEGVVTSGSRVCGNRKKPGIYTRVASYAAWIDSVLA

Effect on Factor D activity (Factor D; DCIC 23 μM and 35 μM) | Effect on Factor D activity (Factor D; DCIC 178 μM, 267 μM and 400 μM) | Compound | Effect on convertase activity (C5 convertase; OmCI 50 nM) | ECL signal (amount of C5a produced by C5 convertase) (C5 convertase; OmCI 50 nM) | drop of ECL signal (C5 convertase; OmCI 100 nM) [fold] | ECL signal (amount of C5a produced by C5 convertase) (C5 convertase; OmCI 100 nM)
minimal effect | maximally inhibited | O=c1oc(Cl)c(Cl)c2ccccc12 [DCIC, 3,4-Dichloroisocoumarin] |  |  |  | 
 |  | OmCI: tick saliva complement inhibitor, a C5 binding protein that reduces access of the C5 convertase to the C5 cleavage site | essentially no effect | 40,000 | 8 | 5000
